Measured values from patent publication US20060111289A1, “Compositions and methods of using Alpha-fetoprotein growth inhibitory peptides” (Serometrix, LLC,, priority 2004, published 2006).

Test system: human platelets
Assay: Platelet aggregation in human platelet-rich plasma
Format: cell-based
Parameters: % Inhibition Of Activity: Platelet Agg. ADP / % Inhibition Of Activity: Platelet Agg. AA / % Inhibition Of Activity: Platelet Agg. Coll: concentration or dose not given beside the values
Protocol: FIG. 9 presents exemplary data showing platelet aggregation modulation using 0.5 ml of normal human platelet-rich plasma (PRP) with varying amounts of P149 or P 149b using 2.5×10^6 platelets per reaction vessel.
FIG. 10 presents exemplary data showing platelet aggregation activation by arachidonic acid (AA) and collagen using P149-treated platelet suspensions • Panel A1: AA alone; • Panel A2: AA followed by epinephine (EPI) and EPI alone using P149b; • Panel A3: CD62P flow cytometry fluorescence quenching by P149; • Panel B1: collagen alone and collagen+P149; • Panel B2: collagen alone; collagen+P149a showing aggregation diminution.
GIP-derived peptide fragments and/or subfragments have been assayed for platelet aggregation by measuring light transmissions with an aggregometer using a stirred human platelet suspension. Kinlough-Rathbone et al., In: Platelet Aggregation in Measurements of Platelet Function, Eds. Harker L A, Zimmerman T S., Churchill Livingstone, London. pp. 64-87 (1983); and Whittle et al., “Specificity between the anti-aggregatory actions of prostacyclin, prostaglandin Eland D2 on platelets” In: Mechanisms of stimulus—response coupling in platelets, Eds. V. V. K., MacIntyre D E, Scully M F., New York and London: Plenum Press. pp. 109-115 (1985).
The ability of GIP and its fragments were individually examined for aggregation inhibition using citrated human platelet-rich plasma (PRP). The peptides were freshly dissolved in 0.15 M NaCl containing 2.5×10^6 platelets/ml. […]

KDFIHKQGVALQTMKQELINLVKELVKPQIEAVADFSGLL (listed as Homo sapiens) [P192, reference compound]
% Inhibition Of Activity: Platelet Agg. ADP (ADP-induced): 0%
% Inhibition Of Activity: Platelet Agg. AA (arachidonic acid-induced): 0%
% Inhibition Of Activity: Platelet Agg. Coll (collagen-induced): 0%
Inhibition (%) Of Platelet Aggregation, Adenosine Diphosphate (ADP) 2.5 μM (peptide inhibitors 30 & 100 μM): No effect
Inhibition (%) Of Platelet Aggregation, Arachidonic Acid (AA) 0.3 mM (peptide inhibitors 30 & 100 μM): No effect
Inhibition (%) Of Platelet Aggregation, Collagen (COLL) 2 μg/ml (peptide inhibitors 30 & 100 μM): No effect
Inhibition (%) Of Platelet Aggregation, Epinephrine (peptide inhibitors 30 & 100 μM): No effect
